1 molecule from article PMC11100219, “Dual-function antimicrobial-antibiofilm peptide hybrid to tackle biofilm-forming Staphylococcus epidermidis” (Annals of Clinical Microbiology and Antimicrobials, 2024) can be followed below.

Residues, ends and D or L forms follow the SMILES beside them.

Data set [1] concerns all gram-negative bacterial strains. The experiment in a line: Mean MIC and therapeutic index, gram-negative strains. The class given is cell-based. As to conditions: four gram-negative strains. As to the method:
(§1) The minimal inhibitory concentrations (MICs) of peptide derivatives versus planktonic bacteria were assessed using a modification of the broth microdilution assay previously described in the National Committee for Clinical Laboratory Standards (NCCLS). In brief, bacteria at mid-logarithmic growth were collected by centrifugation at 2,500 × g for 5 min. Subsequently, the pellet was resuspended and adjusted in Mueller-Hinton Broth (MHB; BD Bacto™, USA) to an OD620 of 0.05. Fifty µL of bacterial suspensions was transferred to 96-well microplates. Later, 50 µL of peptide derivatives at 0.98–250 µg/mL in 10 mM PBS, was added to wells and incubated for 24 h at 37°C with continuous shaking at 220 rpm. […] The experiments were done in three technical replicates and repeated independently.
(§2) The therapeutic index (TI) is widely used for evaluating a peptide’s efficacy and safety. It is the ratio between the minimum hemolytic concentration (MHC, the concentration causing 10% hemolysis) and the geometric mean (GM) value of the MIC [15]. […] While, both lysine-substituted peptides (BiF2_7K and BiF2_5K7K) had higher TIs against all tested biofilm-forming bacteria than did the two parent peptides, and the TI of BiF2_5K7K was higher than that of BiF2_7K.

A further data set concerns biofilm-forming bacteria. The experiment in a line: Antibacterial activity against the panel of planktonic biofilm-forming bacteria. It counts as cell-based. As to the method: The biofilm-forming bacteria, including S. epidermidis ATCC 35984, Staphylococcus aureus ATCC 25923, Bacillus cereus ATCC 11778, Listeria monocytogenes 10403s, Pseudomonas aeruginosa ATCC 27853, Salmonella Typhimurium ATCC 13311, Escherichia coli ATCC 25922 and Acinetobacter baumanii MT strain, were used. All bacterial strains were grown on tryptic soy agar (TSA; BD Bacto™, USA) except E. coli and L. monocytogenes which were cultured on Luria agar (LA) and TSA supplemented with 0.6% Yeast Extract (TSAYE), respectively, at 37°C overnight. Subsequently, isolated colonies were inoculated and cultured in 5 mL of tryptic soy broth (TSB; BD Bacto™, USA), Luria Broth (LB), or TSB supplemented with 0.6% Yeast Extract (TSBYE) at 37°C for 16–18 h.
The minimal inhibitory concentrations (MICs) of peptide derivatives versus planktonic bacteria were assessed using a modification of the broth microdilution assay previously described in the National Committee for Clinical Laboratory Standards (NCCLS). In brief, bacteria at mid-logarithmic growth were collected by centrifugation at 2,500 × g for 5 min. Subsequently, the pellet was resuspended and adjusted in Mueller-Hinton Broth (MHB; BD Bacto™, USA) to an OD620 of 0.05. Fifty µL of bacterial suspensions was transferred to 96-well microplates. […]

Data set [2] deals with Staphylococcus epidermidis ATCC 35984. The experiment in a line: Broth microdilution MIC / MBC. The class given is cell-based. As to conditions: 24 h, 37°C. As to the method: as §1
(§3) To determine minimal bactericidal concentrations (MBCs) of the peptides, 50 µL of supernatant from non-turbid wells was plated on TSA, and the number of colony-forming units (CFUs) was observed after 24 h of incubation at 37°C. MBC was defined as the minimum concentration of peptide at which no bacterial colony was observed on the plate.

The test system of data set [3] is Staphylococcus aureus ATCC 25923. Put plainly: Broth microdilution MIC / MBC. It counts as cell-based. As to conditions: 24 h, 37°C. Here is the method:
as §1, §3

For data set [4], the system named is Acinetobacter baumanii MT strain. Put plainly: Broth microdilution MIC / MBC. The class given is cell-based. As to conditions: 24 h, 37°C. As to the method: as §1, §3
Data set [5] deals with Escherichia coli ATCC 25922. Put plainly: Broth microdilution MIC / MBC. The class given is cell-based. As to conditions: 24 h, 37°C. Here is the method:
as §1, §3

Data set [6] has as its system Listeria monocytogenes 10403s. The experiment in a line: Broth microdilution MIC / MBC. As to conditions: 24 h, 37°C. The class given is cell-based. As to the method:
as §1, §3

Data set [7] concerns Bacillus cereus ATCC 11778. The experiment in a line: Broth microdilution MIC / MBC. It counts as cell-based. As to conditions: 24 h, 37°C. Here is the method:
as §1, §3

The test system of data set [8] is Salmonella Typhimurium ATCC 13311. The experiment in a line: Broth microdilution MIC / MBC. The class given is cell-based. As to conditions: 24 h, 37°C. Here is the method:
as §1, §3

For data set [9], the system named is Pseudomonas aeruginosa ATCC 27853. The experiment in a line: Broth microdilution MIC / MBC. It counts as cell-based. As to conditions: 24 h, 37°C. As to the method: as §1, §3
Data set [10] deals with all gram-positive bacterial strains. Put plainly: Mean MIC and therapeutic index, gram-positive strains. As to conditions: four gram-positive strains. The class given is cell-based. As to the method:
as §1, §2

Data set [11] deals with S. epidermidis (ATCC 35984) biofilm. Put plainly: Biofilm-formation inhibitory activity, crystal violet staining. The class given is cell-based, Staphylococcus epidermidis. As to conditions: CV staining, TSB, 10^6 CFU/mL, 24 h, 37°C, 0.98-250 µg/mL. Here is the method: The biofilm inhibitory activity of peptide derivatives was assessed by modified crystal violet (CV) staining. Briefly, the pellet of S. epidermidis (ATCC 35984) was collected through centrifugation of bacterial suspensions grown overnight at 2,500 × g for 5 min. Subsequently, the pellet was resuspended and diluted with TSB to a final concentration of 10^6 CFU/mL. Then, 50 µL of these diluted suspensions was transferred to 96-well microplates containing same volume of peptide derivatives in 10 mM phosphate buffer saline (PBS; Caisson Labs, USA), with concentrations ranging from 0.98 to 250 µg/mL. Vancomycin was used as positive control while TSB medium without bacteria was used as negative control. After 24 h of incubation and reaching static growth at 37°C, culture media as well as planktonic cells were removed, then the biofilm in each well was washed thrice with 0.85% NaCl. For CV staining, biofilms were fixed with 95% ethanol and stained with a 0.1% (v/v) CV solution for 15 min. After removal of excess dye, each well was washed thrice with 0.85% NaCl and resuspended in 95% ethanol to dissolve bound dye. Absorbance was determined at 570 nm using a Multiskan SkyHigh microplate reader (Thermo Scientific™, Singapore). All experiments were done in six technical replicates and repeated independently three times. Minimum biofilm inhibitory concentrations at 50% and 90% (MBIC50 and MBIC90) refers to concentrations of the peptide at which the inhibition of biofilm was at least 50% and 90%, respectively.

In data set [12] the test system is human red blood cells (hRBCs). Put plainly: Hemolysis activity (hemoglobin release). The class given is cell-based. As to conditions: 1 h, 37°C. Here is the method: The effect of peptides on human red blood cells (hRBCs) was assessed by observing the release of hemoglobin upon treated with peptide. Briefly, the hRBCs were obtained from healthy volunteers and subsequently diluted in 10 mM PBS to a concentration of 2% hRBCs. An equal volume of 2% hRBCs and peptide at concentration of 0.98–250 µg/mL in 10 mM PBS mixtures were incubated for 1 h at 37°C. Following incubation, the suspension was centrifuged, then supernatants were collected and transferred to 96-well microplates for measurement of absorbance at OD of 405 nm (OD405). This study was performed in accordance with the Thammasat University Ethics Committee (COA No. 066/2562). Written informed consent was obtained from all volunteers.

Where [13] appears, read: broth microdilution, MHB, 0.98-250 µg/mL, visible inspection.
[14] abbreviates: plating of non-turbid wells on TSA.

With `CC[C@H](C)[C@H](NC(=O)[C@H](CC(C)C)NC(=O)[C@H](CCCCN)NC(=O)[C@@H](NC(=O)[C@H](CC(C)C)NC(=O)[C@@H](N)Cc1ccccc1)C(C)C)C(=O)N[C@@H](CC(C)C)C(N)=O` [BiF] (H-FLVKLIL-NH2; N-terminus assumed), in data set [1], the “GM-, geometric mean of MIC values from all gram-negative bacterial strains” value was over 250 µg/mL. Besides, the “antibacterial activity against target bacteria” value in the data set on biofilm-forming bacteria is on record as “no antibacterial activity”. The minimum inhibitory concentration (MIC) in data set [2] (setting [13]), in data set [3] (setting [13]), in [4] (setting [13]), in data set [5] (setting [13]), in [6] (setting [13]) and in data set [7] (setting [13]) was over 250 µg/mL throughout. For the same molecule, the MIC in data set [8] (setting [13]) and in [9] (setting [13]) was over 250 µg/mL each time. Also, the minimum bactericidal concentration (MBC) in [2] (setting [14]), in data set [3] (setting [14]), in data set [4] (setting [14]), in data set [5] (setting [14]), in data set [6] (setting [14]) and in data set [7] (setting [14]) was over 250 µg/mL each time. Moreover, the MBC in data set [8] (setting [14]) and in [9] (setting [14]) was over 250 µg/mL each time. The “GM +, geometric mean of MIC values from all gram-positive bacterial strains” value in [10] is over 250 µg/mL. The MBIC50 in data set [11] (minimum concentration inhibiting biofilm formation more than 50%) was determined as 125 µg/mL. In data set [11] (minimum concentration inhibiting biofilm formation more than 90%), this molecule had an MBIC90 of over 250 µg/mL. Moreover, the “hRBCs lysed (hemolysis)” value in data set [12] (at 31.25 µg/mL) is recorded as “more than 20%”. The same molecule returned a hemolytic activity in data set [12] (at 250 µg/mL (maximum concentration tested)) of 100%. In addition, in data set [12] (peptide concentration causing 10% hemolysis of hRBCs, 2% hRBCs in 10 mM PBS, OD405), the “MHC, minimum hemolytic concentration” value is reported as 15.63 µg/mL.
